Experimental data published in ChEMBL document CHEMBL1201862, “PubChem BioAssay data set” (2004).
Activity calls are given as the source filed them. For most assays here, no stated cut-off is given here; in the data, actives have a measured EC50 and inactives only a lower limit.

Tests used:
[1] = Luminescence Cell-Based Dose Confirmation HTS to Identify Activators of 5'UTR Stem-Loop Driven Alpha-Synuclein mRNA Translation in H4 Neuroglioblastoma Cells. [Related pubchem assays: 1829 (Project Summary), 1814 (Primary HTS)]; assay type: functional
[2] = Luminescence Cell-Based Dose Response HTS to Identify Activators of Luciferase Translation or Activity in H4 […] Cells. [Related pubchem assays: 1829 (Project Summary), 1814 (Primary HTS)]; assay type: functional
H4 = test: Luminescence Cell-Based Dose Response HTS to Identify Activators of 5'UTR Stem-Loop Driven Prion Protein mRNA Translation in H4 Neuroglioblastoma Cells. [Related pubchem assays: 1829 (Project Summary), 1814 (Primary HTS)]; assay type: functional; conditions: Homo sapiens
[3] = target: T1, RNA-binding protein pos-1 (Caenorhabditis elegans, UniProt G5EF15); test: inhibitors of POS-1/mex-3 RNA binding, dose response, biochemical, fluorescence polarization (AID 1964);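 further: purified POS-1 fused to maltose binding protein made in E. coli; potency of compounds blocking POS-1 binding to fluorescent RNA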
T1 sequence (G5EF15 whole entry): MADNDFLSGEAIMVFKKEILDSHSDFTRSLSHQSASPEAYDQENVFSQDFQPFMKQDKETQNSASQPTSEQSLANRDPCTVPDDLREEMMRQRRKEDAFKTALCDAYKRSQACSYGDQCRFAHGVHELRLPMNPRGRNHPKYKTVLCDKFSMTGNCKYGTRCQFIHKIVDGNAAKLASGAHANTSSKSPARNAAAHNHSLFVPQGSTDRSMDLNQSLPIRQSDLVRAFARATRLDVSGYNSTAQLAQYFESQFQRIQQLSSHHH

[4] = target: T2, Zinc finger protein mex-5 (Caenorhabditis elegans, UniProt Q9XUB2); test: MEX-5/TCR-2 RNA interaction inhibitors, dose response, biochemical, C. elegans, fluorescence polarization (AID 1960)
T2 sequence (Q9XUB2 whole entry): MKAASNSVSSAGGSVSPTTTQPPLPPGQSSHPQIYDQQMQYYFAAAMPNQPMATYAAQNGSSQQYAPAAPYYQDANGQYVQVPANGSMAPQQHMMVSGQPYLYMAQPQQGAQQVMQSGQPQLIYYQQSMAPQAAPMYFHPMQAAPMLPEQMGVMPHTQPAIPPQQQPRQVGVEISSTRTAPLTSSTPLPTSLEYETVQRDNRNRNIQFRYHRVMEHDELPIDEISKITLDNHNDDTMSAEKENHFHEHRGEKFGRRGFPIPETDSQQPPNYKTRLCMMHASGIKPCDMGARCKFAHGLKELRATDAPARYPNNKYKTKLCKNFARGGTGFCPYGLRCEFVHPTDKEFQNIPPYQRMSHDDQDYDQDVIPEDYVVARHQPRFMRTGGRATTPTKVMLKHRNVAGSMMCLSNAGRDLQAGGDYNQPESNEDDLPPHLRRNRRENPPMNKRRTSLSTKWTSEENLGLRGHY

Cytochrome P450 2D6 = Cytochrome P450 2D6 (Homo sapiens, UniProt P10635);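 further: CYP2D6 member of a cytochrome P450 panel assay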
Cytochrome P450 2D6, sequence (P10635 whole entry): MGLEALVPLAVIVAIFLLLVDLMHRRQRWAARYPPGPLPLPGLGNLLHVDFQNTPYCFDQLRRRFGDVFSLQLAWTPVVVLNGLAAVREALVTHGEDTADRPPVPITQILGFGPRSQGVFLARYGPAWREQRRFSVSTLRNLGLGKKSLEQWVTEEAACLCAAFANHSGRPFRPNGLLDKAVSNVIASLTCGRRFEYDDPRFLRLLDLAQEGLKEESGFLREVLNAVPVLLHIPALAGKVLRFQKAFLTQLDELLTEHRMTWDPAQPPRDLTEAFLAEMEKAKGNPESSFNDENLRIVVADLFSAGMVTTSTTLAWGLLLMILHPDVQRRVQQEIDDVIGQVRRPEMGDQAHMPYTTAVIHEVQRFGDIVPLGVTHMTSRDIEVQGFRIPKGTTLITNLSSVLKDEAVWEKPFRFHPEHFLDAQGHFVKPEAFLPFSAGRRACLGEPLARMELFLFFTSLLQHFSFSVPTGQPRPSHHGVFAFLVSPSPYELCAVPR

[5] = target: T3, Heat shock factor protein 1 (Mus musculus, UniProt P38532); test: HSF1 potentiators in luciferase reporter cells, confirmation, cell-based, NIH3T3, luminescence, dose retest (AID 435004); assay type: functional;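 further: stress induced by proteasome inhibitor MG132 added 30 min after compound; luciferase reporter driven by HSF1 response element in NIH3T3 cells; actives raise luminescence as potentiators of the MG132 stress response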
T3 sequence (P38532 whole entry): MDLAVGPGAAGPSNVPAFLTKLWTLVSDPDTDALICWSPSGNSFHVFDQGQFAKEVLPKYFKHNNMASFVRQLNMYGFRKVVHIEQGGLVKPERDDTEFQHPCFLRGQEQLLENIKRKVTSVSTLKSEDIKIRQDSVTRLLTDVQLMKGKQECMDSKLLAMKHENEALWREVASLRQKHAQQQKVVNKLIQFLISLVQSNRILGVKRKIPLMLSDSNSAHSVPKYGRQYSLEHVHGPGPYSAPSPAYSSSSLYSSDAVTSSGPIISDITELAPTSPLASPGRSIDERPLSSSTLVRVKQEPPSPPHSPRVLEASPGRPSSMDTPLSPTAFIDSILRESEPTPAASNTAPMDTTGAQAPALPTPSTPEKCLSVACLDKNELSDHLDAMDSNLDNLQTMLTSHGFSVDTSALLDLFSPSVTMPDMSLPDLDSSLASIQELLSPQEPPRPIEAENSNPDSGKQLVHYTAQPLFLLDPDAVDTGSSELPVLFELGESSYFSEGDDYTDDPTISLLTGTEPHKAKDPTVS

Cytochrome P450 3A4 = Cytochrome P450 3A4 (Homo sapiens, UniProt P08684);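 further: CYP3A4 tested as one member of a cytochrome P450 panel screen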
Cytochrome P450 3A4, sequence (P08684 whole entry): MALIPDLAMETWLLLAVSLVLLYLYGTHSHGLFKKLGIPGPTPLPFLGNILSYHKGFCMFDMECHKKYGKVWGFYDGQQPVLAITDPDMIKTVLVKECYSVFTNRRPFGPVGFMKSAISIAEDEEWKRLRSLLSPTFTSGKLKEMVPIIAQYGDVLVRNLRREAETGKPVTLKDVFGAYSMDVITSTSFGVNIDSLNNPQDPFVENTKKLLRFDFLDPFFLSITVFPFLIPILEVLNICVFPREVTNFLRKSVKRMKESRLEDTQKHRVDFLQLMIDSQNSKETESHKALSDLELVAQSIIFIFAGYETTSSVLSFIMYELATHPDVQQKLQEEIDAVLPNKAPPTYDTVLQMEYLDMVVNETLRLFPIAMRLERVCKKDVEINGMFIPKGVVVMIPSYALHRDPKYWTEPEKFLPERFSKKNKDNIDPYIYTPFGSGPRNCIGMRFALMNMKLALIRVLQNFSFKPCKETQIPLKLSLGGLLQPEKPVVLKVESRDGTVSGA

[6] = Luminescence Cell-Based Dose Retest to Confirm Inhibitors of Cancer Stem Cells. [Related pubchem assays (depositor defined):AID2717, AID2721]; assay type: functional; conditions: Homo sapiens
[7] = target: T4, Corticotropin-releasing factor receptor 2/Corticotropin-releasing factor-binding protein (Homo sapiens, UniProt P24387+Q13324); test: activators of CRF receptor 2 with binding protein – uHTS hits, confirmation (AID 602473); assay type: functional; conditions: read-out: EC50_Mean
T4 sequence (Q13324 whole entry): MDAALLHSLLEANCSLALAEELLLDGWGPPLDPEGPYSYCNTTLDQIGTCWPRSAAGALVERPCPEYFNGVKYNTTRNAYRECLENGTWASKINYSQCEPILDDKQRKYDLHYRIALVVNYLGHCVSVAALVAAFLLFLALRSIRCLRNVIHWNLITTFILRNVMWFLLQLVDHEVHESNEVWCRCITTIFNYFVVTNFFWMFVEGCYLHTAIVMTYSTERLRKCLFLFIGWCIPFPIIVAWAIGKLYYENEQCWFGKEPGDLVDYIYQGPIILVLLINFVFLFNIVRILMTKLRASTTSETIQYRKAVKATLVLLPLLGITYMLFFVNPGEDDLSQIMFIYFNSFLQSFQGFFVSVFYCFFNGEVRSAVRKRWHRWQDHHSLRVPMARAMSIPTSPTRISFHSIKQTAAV
T4 sequence (P24387 whole entry): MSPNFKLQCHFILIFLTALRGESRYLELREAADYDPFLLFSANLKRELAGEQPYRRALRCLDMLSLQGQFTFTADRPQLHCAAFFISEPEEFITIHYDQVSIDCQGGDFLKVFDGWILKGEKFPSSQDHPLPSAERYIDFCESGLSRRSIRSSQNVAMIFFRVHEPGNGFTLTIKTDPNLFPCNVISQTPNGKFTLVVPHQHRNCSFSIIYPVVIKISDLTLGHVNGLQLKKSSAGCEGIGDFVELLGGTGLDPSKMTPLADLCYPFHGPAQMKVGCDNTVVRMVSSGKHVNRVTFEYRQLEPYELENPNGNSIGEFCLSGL

Cytochrome P450 1A2 = target: T5, Cytochrome P450 1A2 (Homo sapiens, UniProt P05177);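 further: PubChem cytochrome P450 panel assay, CYP1A2 panel member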
T5 sequence (P05177 whole entry): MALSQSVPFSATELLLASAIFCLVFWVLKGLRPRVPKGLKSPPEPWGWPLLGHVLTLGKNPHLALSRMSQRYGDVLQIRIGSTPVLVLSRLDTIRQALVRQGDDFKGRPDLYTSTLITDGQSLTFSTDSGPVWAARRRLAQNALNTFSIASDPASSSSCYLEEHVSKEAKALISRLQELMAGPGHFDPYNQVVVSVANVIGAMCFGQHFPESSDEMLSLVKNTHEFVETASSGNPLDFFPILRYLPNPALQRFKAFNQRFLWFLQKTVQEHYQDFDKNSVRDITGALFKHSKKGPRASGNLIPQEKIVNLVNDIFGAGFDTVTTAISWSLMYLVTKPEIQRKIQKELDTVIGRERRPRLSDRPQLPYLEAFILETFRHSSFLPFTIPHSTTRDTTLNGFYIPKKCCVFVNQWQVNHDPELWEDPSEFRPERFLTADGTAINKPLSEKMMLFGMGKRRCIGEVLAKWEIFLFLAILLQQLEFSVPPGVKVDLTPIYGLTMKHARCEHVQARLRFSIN

P388/ADR = test: cells; assay type: functional; conditions: Mus musculus
SN12K1 = test: cells; assay type: functional; conditions: Homo sapiens

CC12CCC(C(=O)Nc3nc4ccccc4s3)(OC1=O)C2(C)C (stereo unspecified)
EC50 [1]: > 60 µM (not active)
EC50 [2]: 18.9 µM (active)
EC50 (H4): 12.7 µM (active)

C=CCNC(SCC(=O)c1ccc(Cl)cc1)=C1C(=O)N(C)C(=O)N(C)C1=O
EC50 [1]: 24.9 µM (active)
EC50 [2]: > 120 µM (not active)
EC50 (H4): 19.5 µM (active)

CCN1C(=O)/C(=C\c2cccs2)C(C(=O)OC)=C1C
EC50 [3]: > 300 µM (not active)
EC50 [4]: > 300 µM (not active)

O=C(Nc1nc2c(F)cc(F)cc2s1)C1CCN(C(=O)c2ccc(F)cc2)CC1
EC50 [1]: 3.61 µM (active)
EC50 [2]: 8.78 µM (active)
EC50 (H4): 26.8 µM (active)

N#C[C@H](c1ccccc1)N1CCCN([C@@H](C#N)c2ccccc2)[C@H]1c1ccccc1O
AC50 (Cytochrome P450 2D6): 5.01 µM (inconclusive)

CCOC(=O)C1CCN(c2c(Nc3ccc4c(c3)OCCO4)c(=O)c2=O)CC1
EC50 [1]: 18.9 µM (active)
EC50 [2]: 18 µM (active)
EC50 (H4): 9.87 µM (active)

N#C/C(=C/c1cccn1-c1cccc(C(=O)O)c1)c1ccc(Cl)cc1
EC50 [3]: > 300 µM (not active)
EC50 [4]: > 300 µM (not active)

COCCn1c(N)c(N(Cc2ccccc2)C(=O)c2ccc(C#N)cc2)c(=O)[nH]c1=O
EC50 [5]: > 260 µM (inactive)

Cc1cc(/C=C2\C(=O)NC(=O)N(c3ccc(Br)cc3)C2=O)c(C)n1-c1cc(C(=O)O)cc(C(=O)O)c1
EC50 [3]: > 300 µM (not active)
EC50 [4]: > 300 µM (not active)

O[C@H](COc1ccccc1)CN1CCCCC1
AC50 (Cytochrome P450 2D6): 5.01 µM (inconclusive)

Cc1ccc(-c2ccc(O)nn2)cc1
EC50 [5]: > 260 µM (inactive)

O=C1NC(=O)N(c2cccc(Cl)c2)C(=O)/C1=C\Nc1ccccn1
EC50 [3]: > 300 µM (not active)
EC50 [4]: > 300 µM (not active)

COC(=O)CCCC1=CC2=CC(=O)C(C)(OC(=O)c3ccco3)C(=O)C2=CO1 (stereo unspecified)
EC50 [3]: 274 µM (inconclusive)
EC50 [4]: 22.3 µM (active)

Cc1ccc(CNC(=O)/C(C#N)=C\c2ccc(N(C)C)cc2)cc1
EC50 [3]: 43.5 µM (active)
EC50 [4]: > 300 µM (not active)

Cc1noc(C)c1C(=O)N1CCC2(CCCN(c3ccccc3)C2)CC1
AC50 (Cytochrome P450 2D6): 12.6 µM (inconclusive)
AC50 (Cytochrome P450 3A4): 15.8 µM (inconclusive)

CCCOC1CCCN(C(=O)CCc2nnc(Cc3cccc(C)c3)o2)C1 (stereo unspecified)
EC50 [1]: 9.73 µM (active)
EC50 [2]: 16.5 µM (active)
EC50 (H4): 16.5 µM (inconclusive)

Cc1ccc(C(c2nnnn2C2CCCC2)N2CCc3ccccc32)cc1 (stereo unspecified)
EC50 [5]: > 260 µM (inactive)

O=C(Nc1cc(C(F)(F)F)ccc1Cl)c1cc2nc3c(c(C(F)(F)F)n2n1)CCCC3
EC50 [1]: 1.53 µM (active)
EC50 [2]: 0.365 µM (active)
EC50 (H4): 0.195 µM (active)

CCCC[C@@H]1C[C@H]1C(NC(=O)c1ccco1)c1ccccc1 (stereo partly specified)
AC50 (Cytochrome P450 2D6): 39.8 µM (inconclusive)
AC50 (Cytochrome P450 3A4): 20 µM (inconclusive)

S=C(N=Nc1ccccc1)NNc1ccccc1
EC50 [1]: 14.4 µM (active)
EC50 [2]: 14.1 µM (active)
EC50 (H4): 27.9 µM (inconclusive)

S=C1SCN(C2CCCCCCCCCCC2)CN1C1CCCCCCCCCCC1
AC50 (Cytochrome P450 2D6): 3.16 µM (inconclusive)

CNC(=O)c1c(NC(=O)c2ccc(S(=O)(=O)N3CCCc4ccccc43)cc2)sc2c1CCN(C)C2
EC50 [3]: > 300 µM (not active)
EC50 [4]: > 300 µM (not active)
AC50 [6]: 0.206 µM (active)
EC50 [7]: 6.81 µM (active)

O=C(c1csnn1)N1CCC2(CC1)CCN(c1ncccn1)CC2
AC50 (Cytochrome P450 2D6): 39.8 µM (inconclusive)

CCC/C=C(\CCC)C(NS(C)(=O)=O)c1ccccc1 (stereo unspecified)
AC50 (Cytochrome P450 2D6): 39.8 µM (inconclusive)
AC50 (Cytochrome P450 1A2): 25.1 µM (inconclusive)
AC50 (Cytochrome P450 3A4): 31.6 µM (inconclusive)

S=C(NCc1ccco1)N1CCN(c2ccccc2Cl)CC1
EC50 [5]: > 260 µM (inactive)

C[C@H]1CN(C2CCC(C#N)(c3ccc(F)cc3)CC2)CC[C@@]1(C(=O)O)c1ccccc1 (stereo partly specified)
AC50 (Cytochrome P450 2D6): 10 µM (inconclusive)

CCN1CCCCC(=N/O)/C(=N/O)CCCC1
AC50 (Cytochrome P450 2D6): 1.58 µM (inconclusive)

O=S1(=O)N=C(NCC(c2ccco2)N2CCCCC2)c2ccccc21 (stereo unspecified)
EC50 [5]: > 260 µM (inactive)

C/C(=N\OC(=O)c1ccc(F)cc1)c1ccc(F)c(F)c1
EC50 [5]: > 260 µM (inactive)

Oc1ccc(Br)cc1/C=N/n1cnc2ccccc21
EC50 [1]: 11 µM (active)
EC50 [2]: 15.8 µM (active)
EC50 (H4): 17.9 µM (active)

Cc1ccc(/C=N/N(Cc2ccccc2)c2ccccc2)o1
EC50 [5]: > 260 µM (inactive)

C/C(=N/NC(=O)c1ccoc1C)c1ccc(NC(=O)c2ccncc2)cc1
EC50 [1]: 23.9 µM (active)
EC50 [2]: 0.148 µM (inconclusive)
EC50 (H4): 0.102 µM (active)

CC[C@@]1(O)C[C@H](OC2CC(N(C)C)C(OC3CC(O)C(OC4CCC(=O)C(C)O4)C(C)O3)C(C)O2)c2c(cc3c(c2O)C(=O)c2c(O)cccc2C3=O)[C@H]1C(=O)OC (stereo partly specified)
GI50 (P388/ADR): 0.0333 µM (active)
GI50 (SN12K1): 0.0236 µM (active)

COc1c2occc2c(OC)c2c(=O)cc(C)oc12 [KHELLIN]
AC50 (Cytochrome P450 2D6): 10 µM (inconclusive)
